Patent publication US20020055528A1, “Artemisinin analogs having antimalarial, antiproliferative, and antitumor activities and chemoselective methods of making the same” (priority 1999, published 2002)
Read-outs that look alike come from different tables or passages of the source.

Legend:
MOLT-4 = tested on: MOLT-4
Description: The screening assay is performed on 96-well microtitre plates. Relatively high initial inoculation densities are used, in order to permit measurement of “time-zero” values and to enhance the screen's ability to detect and provide some differentiation between antiproliferative and cytotoxic response parameters. […] The inoculated microtitre plates are pre-incubated for 24 hours at 37θC prior to drug additions. The five drug dilutions tested routinely range from 10^−4 to 10^−8 molar. Higher or lower concentration ranges may be selected on a nonroutine basis if appropriate solubility and/or prior biological information or other screening data so dictate. Duplicate wells are prepared for all concentrations, (concentration is often denoted by placing brackets around a number); “time-zero” and “no drug” controls are also provided for each test. The minimum amount of compound required for a one-time evaluation in the routine screen can be calculated from the knowledge that each test requires a total of approximately 40 ml (0.04 liter) of cell culture medium containing the highest desired drug concentration. Thus, the amount (grams) of sample required (assuming an upper test concentration limit of 10^−4 M) is: molecular weight of compound×[…]. After a 48 hour incubation (37θC) with the test compound, the cells are fixed in situ to the bottoms of the microtitre wells by addition of 50 ul of either 50% trichloroacetic acid (for adherent cell lines) or 80% trichloroacetic acid (for settled cell suspension lines), followed by incubation for 60 minutes at 4θC. The cellular protein in each well is assayed using a sulforhodamine B (SRB) stain procedure. Briefly, after discarding the supernatants, the microtitre plates are washed 5 times with deionized water and air-dried. One hundred microliters of SRB solution (0.4% w/v in 1% acetic acid) is added to each microtitre well and incubated for 10 minutes at room temperature. Unbound SRB is removed by washing 5 times with 1 % acetic acid. The plates are air-dried, the bound stain is solubilized with Tris buffer, and the optical densities read at 515 nm. SRB is a bright pink anionic dye which, in dilute acetic acid, binds electrostatically to the basic amino acids of TCA-fixed cells. Cryopreserved master stocks of all the lines are maintained, and cultures used for screening are replaced from the master stock after no more than twenty passages in the screening laboratory. The cell line panel consists of 60 lines, organized into nine, disease-related subpanels including leukemia, non-small-cell lung cancer, colon, CNS, melanoma, ovarian, renal, prostate and breast cancers.
The response parameters G150 and LC50 are interpolated values representing the concentrations at which the percentage growth (PG) is +50 and −50, respectively:
GI50 is the concentration for which the PG=+50. At this value the increase from time tzero, in the number or mass of cells in the test well is only 50% as much as the corresponding increase in the control well during this period of the experiment, see Table II. A drug effect of this intensity is interpreted as primary growth inhibition.
TGI is the concentration for which PG=0. At this value the number or mass of cells in the well at the end of the experiment equals the number or mass of cells in the well at time tzero, see Table III. A drug effect of this intensity is regarded as cytostasis.
LC50 is the concentration for which the PG=−50. At this value, the number or mass of cells in the test well at the end of the experiment is half that at time tzero, see Table IV. This is interpreted as cytotoxicity.

EKVX = experiment: NCI 60 cell line screen (SRB), Non-Small Cell Lung Cancer; type: cell-based
HOP-62 = experiment: as above; type: cell-based
NCI-H226 = experiment: as above; type: cell-based
HCT-15 = experiment: NCI 60 cell line screen (SRB), Colon Cancer; type: cell-based
SW-620 = experiment: NCI 60 cell line screen (SRB), Colon Cancer; type: cell-based
SNB-75 = experiment: NCI 60 cell line screen (SRB), CNS Cancer; type: cell-based
U251 = experiment: NCI 60 cell line screen (SRB), CNS Cancer; type: cell-based
MALME-3M = experiment: NCI 60 cell line screen (SRB), Melanoma; type: cell-based
SK-MEL2 = experiment: NCI 60 cell line screen (SRB), Melanoma; type: cell-based
IGROVI = experiment: NCI 60 cell line screen (SRB), Ovarian Cancer; type: cell-based
OVCAR-3 = experiment: NCI 60 cell line screen (SRB), Ovarian Cancer; type: cell-based; settings: PG=0
786-0 = experiment: NCI 60 cell line screen (SRB), Renal Cancer; type: cell-based
A498 = experiment: NCI 60 cell line screen (SRB), Renal Cancer; type: cell-based
CAKI-1 = experiment: NCI 60 cell line screen (SRB), Renal Cancer; type: cell-based
SN12C = experiment: NCI 60 cell line screen (SRB), Renal Cancer; type: cell-based
TK-10 = experiment: NCI 60 cell line screen (SRB), Renal Cancer; type: cell-based
MCF7 = experiment: NCI 60 cell line screen (SRB), Breast Cancer; type: cell-based
NCI/ADR-RES = experiment: NCI 60 cell line screen (SRB), Breast Cancer; type: cell-based
HS 578T = experiment: NCI 60 cell line screen (SRB), Breast Cancer; type: cell-based
MDA-N = experiment: NCI 60 cell line screen (SRB), Breast Cancer; type: cell-based

CC1=C(C=Cc2cccc(C=CC3=C(C)C4CCC(C)C5CCC6(C)OOC45C(O3)O6)c2)OC2OC3(C)CCC4C(C)CCC1C24OO3 (stereo not shown) [VII-h]
drug concentration for cytotoxicity (percentage growth −50) (MOLT-4): greater than 10^−4 M
drug concentration for primary growth inhibition (percentage growth +50) (MOLT-4; MOLT-4, FIGS. 6a-6e): greater than 10^−8 molar
Log10GI50 (MOLT-4; MOLT-4, PG=+50): <−8.00 log10M
Log10TGI (MOLT-4; MOLT−4, PG=0): <−8.00 log10M
Log10GI50 (MOLT-4; Table IV (LC50, PG=−50), MOLT−4): >−4.00 log10M
Log10TGI (EKVX; PG=0): >−4.00 log10M
Log10GI50 (EKVX; PG=+50): −7.42 log10M
Log10GI50 (EKVX; Table IV (LC50, PG=−50)): >−4.00 log10M
Log10TGI (HOP-62; PG=0): >−4.00 log10M
Log10GI50 (HOP-62; PG=+50): −7.08 log10M
Log10GI50 (HOP-62; Table IV (LC50, PG=−50)): >−4.00 log10M
Log10TGI (NCI-H226; PG=0): >−4.00 log10M
Log10GI50 (NCI-H226; PG=+50): >−4.00 log10M
Log10GI50 (NCI-H226; Table IV (LC50, PG=−50)): >−4.00 log10M
Log10TGI (HCT-15; PG=0): >−4.00 log10M
log10 GI50 (PG=+50) or LC50 (PG=−50), per row condition (HCT-15; PG=+50): −7.39 log10M
log10 GI50 (PG=+50) or LC50 (PG=−50), per row condition (HCT-15; Table IV (LC50, PG=−50)): >−4.00 log10M
Log10TGI (SW-620; PG=0): >−4.00 log10M
Log10GI50 (SW-620; PG=+50): −7.59 log10M
Log10TGI (SNB-75; PG=0): −5.08 log10M
Log10 GI50 (PG=+50) or LC50 (PG=−50) (SNB-75; PG=+50): −6.99 log10M
Log10 GI50 (PG=+50) or LC50 (PG=−50) (SNB-75; Table IV (LC50, PG=−50)): >−4.00 log10M
Log10TGI (U251; PG=0): >−4.00 log10M
Log10GI50 (U251; PG=+50): −7.26 log10M
Log10GI50 (U251; Table IV (LC50, PG=−50)): >−4.00 log10M
Log10TGI (MALME-3M; PG=0): −4.17 log10M
Log10GI50 (MALME-3M; PG=+50): −6.94 log10M
Log10GI50 (MALME-3M; Table IV (LC50, PG=−50)): >−4.00 log10M
Log10TGI (SK-MEL2; PG=0): −5.34 log10M
Log10 GI50 or LC50 (per conditions) (SK-MEL2; PG=+50): −6.87 log10M
Log10 GI50 or LC50 (per conditions) (SK-MEL2; Table IV (LC50, PG=−50)): >−4.00 log10M
Log10TGI (IGROVI; PG=0): −4.20 log10M
Log10GI50 (IGROVI; Table IV (LC50, PG=−50)): >−4.00 log10M
Log10TGI (OVCAR-3): >−4.00 log10M
Log10TGI (786-0; PG=0): >−4.00 log10M
Log10GI50 (786-0; PG=+50): −7.02 log10M
Log10GI50 (786-0; Table IV (LC50, PG=−50)): >−4.00 log10M
Log10TGI (A498; PG=0): >−4.00 log10M
Log10GI50 (A498; PG=+50): −6.29 log10M
Log10GI50 (A498; Table IV (LC50, PG=−50)): >−4.00 log10M
Log10TGI (CAKI-1; PG=0): >−4.00 log10M
Log10GI50 (CAKI-1; PG=+50): −6.28 log10M
Log10GI50 (CAKI-1; Table IV (LC50, PG=−50)): >−4.00 log10M
Log10TGI (SN12C; SN12C, PG=0): >−4.00 log10M
Log10GI50 (SN12C; SNI2C, PG=+50): −7.31 log10M
Log10GI50 (SN12C; Table IV (LC50, PG=−50), SN12C): −4.00 log10M
Log10TGI (TK-10; PG=0): >−4.00 log10M
Log10GI50 (TK-10; PG=+50): −7.22 log10M
Log10GI50 (TK-10; Table IV (LC50, PG=−50)): >−4.00 log10M
Log10TGI (MCF7; PG=0): −4.31 log10M
Log10GI50 (MCF7; PG=+50): −7.33 log10M
Log10GI50 (MCF7; Table IV (LC50, PG=−50)): >−4.00 log10M
Log10TGI (NCI/ADR-RES; PG=0): −4.40 log10M
Log10GI50 (NCI/ADR-RES; PG=+50): −5.76 log10M
Log10GI50 (NCI/ADR-RES; Table IV (LC50, PG=−50)): >−4.00 log10M
Log10TGI (HS 578T; PG=0): >−4.00 log10M
Log10GI50 (HS 578T; PG=+50): −7.41 log10M
Log10GI50 (HS 578T; Table IV (LC50, PG=−50)): >−4.00 log10M
Log10TGI (MDA-N; PG=0): −5.42 log10M
Log10GI50 (MDA-N; PG=+50): −7.33 log10M
Log10GI50 (MDA-N; Table IV (LC50, PG=−50)): >−4.00 log10M
